Experimental data taken from patent publication US6407136B1, “1,4-dithiin and 1,4-dithiepin-1,1,4,4, tetroxide derivatives useful as antagonists of the human galanin receptor” (Ortho-McNeil Pharmaceutical, Inc., priority 1999, dated 2002).
Read-outs that look alike come from different tables or passages of the source.

What was measured:
[1] = target: T1, hGALR-1 contained in membranes from human Bowes melanoma cells (Homo sapiens, UniProt P47211); assay: Human Galanin-1 Receptor Binding Assay (SPA, 125I human galanin); details: inhibition of 125I human galanin binding
T1 construct: hGALR-1 that is contained in membranes from human Bowes melanoma cells; endogenous in cells; host or cells: human Bowes melanoma cells (membranes)
T1 sequence (P47211 1-349): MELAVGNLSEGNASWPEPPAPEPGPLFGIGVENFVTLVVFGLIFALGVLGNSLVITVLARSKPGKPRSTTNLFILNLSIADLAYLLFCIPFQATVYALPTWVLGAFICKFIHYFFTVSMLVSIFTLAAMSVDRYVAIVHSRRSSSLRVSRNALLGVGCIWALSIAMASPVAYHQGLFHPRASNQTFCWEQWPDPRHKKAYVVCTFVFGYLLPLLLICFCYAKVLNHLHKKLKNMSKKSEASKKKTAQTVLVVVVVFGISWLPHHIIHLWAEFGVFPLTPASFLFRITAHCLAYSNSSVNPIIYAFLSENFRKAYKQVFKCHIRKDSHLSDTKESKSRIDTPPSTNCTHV
Procedure: Human Galanin-1 Receptor Binding Assay
This assay determines the concentration (IC50) of a test compound which prevents 50% of galanin from binding to the hGALR-1 that is contained in membranes from human Bowes melanoma cells bound to wheat germ agglutinin conjugated Scintillation Proximity Assay (SPA) beads. The IC50 value is obtained by measuring the effect of half log increment dilutions of the test compound in duplicate using a 96-well plate (eight-rows, 12-columns).
The SPA beads (500 mg) were dissolved in 12.5 mL of assay buffer composed of 20 mM DMSO-HEPES (pH 7.4), 0.1% bovine serum albumin, 2 mM MgCl2, 2 mM CaCl2, and protease inhibitors. Enough of this suspension for five plates (25 μL×5×96 wells=12000 μL) was dispensed into a 50 mL sterile Falcon tube. The amount of membranes required for five plates was then added (50 μg×5×96 wells), followed by 32.5 mL of 30% DMSO-HEPES buffer. The mixture was placed on a rotator and agitated for 0.5 hours and the non-specific binding sites on the beads were blocked by the addition of 5% [final] fetal bovine serum. Each well of the 96-well plate received 100 μL of this mixture.
To the control column (column 12) rows A and B was added 3.75 μL of a 300 μM solution of galantide in 30% DMSO-HEPES buffer, to rows C and D was added 3.75 μL of 30% DMSO-HEPES buffer and to rows E and F was added 3.75 μL of a 300 μM solution of galanin in 30% DMSO-HEPES buffer. In columns 1 through 11 were added solutions of the test compound in 30% DMSO-HEPES buffer starting at 30 μM and decreasing in concentration in half-log dilutions. A solution of radioactive ^125I human galanin (46.25 μL), prepared from 25 micro Curies of ^125I human galanin (2000 ci/mmol) and 500 μL of assay buffer, was added to each well. The plate was sealed with adhesive paper and incubated for 16 hr at room temperature before the quench-corrected bound radioactivity was measured in a Topcount® apparatus. For each dilution, the % inhibition of galanin binding was calculated as follows:
Total binding (T)=Mean counts/minute (cpm) in row C and D in column 12 Non-specific binding (NSB)=Mean cpm in row E and F in column 12 Total specific binding (TS)=T−NSB
net cpm in each well (N)=C−NSB
The IC50 values for each compound were calculated from the non-linear regression curve of the data using Prism® graphics software.

Rat Galanin-1 Receptor = target: T2, Rat Galanin-1 Receptor (Rattus norvegicus, UniProt Q62805); assay: Rat Galanin-1 Receptor Mediated Inhibition of Acetylcholine Release from Rat Brain Cortical Slices (superfusion); details: for Acetycholine Secretion, Stimulated / Acetycholine Secretion, Stimulated (% change): K+-evoked; for Acetycholine Secretion, Stimulated (% change) / Acetycholine Secretion, Basal (% change): percent in brackets, versus control
T2 sequence (Q62805 1-346): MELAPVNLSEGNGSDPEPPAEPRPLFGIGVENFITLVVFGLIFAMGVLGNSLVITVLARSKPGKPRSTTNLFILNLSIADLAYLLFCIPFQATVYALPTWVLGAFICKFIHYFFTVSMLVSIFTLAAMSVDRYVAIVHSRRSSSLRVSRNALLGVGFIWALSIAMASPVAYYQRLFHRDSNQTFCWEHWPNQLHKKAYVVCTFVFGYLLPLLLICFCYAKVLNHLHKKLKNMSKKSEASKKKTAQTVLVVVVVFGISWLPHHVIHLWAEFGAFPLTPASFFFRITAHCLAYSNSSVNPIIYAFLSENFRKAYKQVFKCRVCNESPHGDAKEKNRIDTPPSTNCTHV
Procedure: Rat brain cerebrocortical tissues were chopped into slices of 300×300×3,000 mm using a Mcllwain tissue chopper. […] After incubation, the slices were washed three times with ice-cold physiological solution and resuspended in 6 ml of cold solution. Equal aliquots of the tissue suspension were placed in each of 6 parallel superfusion chambers (Hugo Sachs Elektronik, March-Hugstetten, Germany). A circular piece of nylon mesh (pore size 250 um) was placed just below each chamber outlet in order to prevent the loss of tissue. The chambers were perfused against gravity with oxygenated Krebs-Ringer containing 1 mM physostigmine hemisulfate at a flow rate of 1 ml/min. […] The onset of superfusion was defined as time zero (t0). Starting at 30 min after t0, 10 min fractions of the effluent were collected.
Release of [^3H]acetylcholine was induced by superfusing tissues for 30 sec with 65 mM K^+-Krebs-Ringer solution (made by isomolar replacement of NaCl with KCl). Four potassium pulses were given respectively at 40 min (S1), 70 min (S2), 100 min (S3) and 130 min (S4) after t0. […] To permit construction of concentration-effect curves, concentrations of agents were increased 10 fold between each stimulus.
Following perfusion, the tissue was homogenized in 1 ml ethanol and aliquots of superfusates (0.4 ml) and tissue homogenates (0.04 ml) were added to 5 ml of Scintsafe PlusTM 50% (Fisher Scientific, Pittsburgh, Pa.) and radioactivity counted by liquid scintillation spectrometry. The total ^3H content in this procedure consisted mainly of [^3H]acetylcholine.
Tritium (^3H) efflux into the superfusate was calculated as the fraction of tritium content in the slices or synaptosomes at the onset of the respective collection period. For calculation of the stimulated tritium overflow, the estimated basal efflux (the average of the 10 min fractions immediately before and after each stimulation) was subtracted from the total tritium efflux during the 10 min fraction which began with the 30 sec K^+ pulse. This difference was then used to calculate the percent of K^+-evoked release of acetylcholine.
In order to quantify the in vitro effect of a drug on stimulated tritium outflow, the ratio of the fraction released by a given pulse, Sn, to that evoked by S1, was determined. Data presented below are expressed as the mean fractional tritium release ±S.E.M. Statistical differences between treatments were tested by the two-tailed Student's t test or the two factor ANOVA as appropriate. Individual differences in the dose-response curve was evaluated by the Newman-Keul multiple comparison.

[2] = Table II, formula (II) compounds, read-out: hGAL IC50
[3] = 10 μM + GAL, mean fractional tritium release

SMILES | IC50 [1, 2] | Acetycholine Secretion, Stimulated (% change) (Rat Galanin-1 Receptor; 1 μM + GAL) | Acetycholine Secretion, Basal (% change) (Rat Galanin-1 Receptor; 1 μM + GAL) | Acetycholine Secretion, Basal (% change) (Rat Galanin-1 Receptor; 10 μM + GAL) | further results
O=S1(=O)C=C(c2ccc(Br)cc2)S(=O)(=O)CC1 [Cmpd 2] | – | – | – | – | IC50 ([1]; Table I, formula (I) compounds, read-out: HGAL IC50): 1000 nM
COc1cccc(C2=CS(=O)(=O)CCCS2(=O)=O)c1 [Cmpd 15] | 1100 nM | – | – | – | –
O=S1(=O)C=C(c2cccc(F)c2)S(=O)(=O)CCC1 [Cmpd 16] | 1300 nM | −23.9% | −38.9% | −37% | Acetycholine Secretion, Stimulated (Rat Galanin-1 Receptor; 1 μM + GAL, mean fractional tritium release): 6.31; Acetycholine Secretion, Stimulated (Rat Galanin-1 Receptor; [3]): 8.27; Acetycholine Secretion, Basal (Rat Galanin-1 Receptor; [3]): 2.28
O=S1(=O)C=C(c2ccc(I)cc2)S(=O)(=O)CCC1 [Cmpd 17] | – | −35.2% | −39.2% | −37% | Acetycholine Secretion, Stimulated (% change) (Rat Galanin-1 Receptor; 10 μM + GAL): −22.3%
O=S1(=O)C=C(c2ccc(Cl)cc2)S(=O)(=O)CCC1 [Cmpd 21] | 1900 nM | – | – | – | –
